How the values were obtained:
Type in all cases: in vivo
[1] = test system: Cyperus difformis; assay: Test Example 3: herbicidal effect by application to foliage (Wagner pot, water depth 0.1-0.5 cm); settings: Nineteenth Table; application to foliage; application herbicide amount 320 g/ha
Outline: (§1)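 Foliar spray, 14-day-old plants, emulsion diluted to target g/ha; rated 3 wk post-application, 0–5 scale (0 ≤5%, 5 ≥90% herbicidal ratio). Greenhouse 25–30 °C, alluvial soil.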

[2] = test system: Leptochloa chinensis; assay: as above; settings: Nineteenth Table; application to foliage; application herbicide amount 320 g/ha
Outline: as §1

[3] = test system: Echinochloa crus-galli var. crus-galli; assay: as above; settings: Nineteenth Table; application to foliage; application herbicide amount 320 g/ha
Outline: as §1

[4] = test system: directly sowed Oryza sativa; assay: Test Example 3: effect on crop by application to foliage (Wagner pot, water depth 0.1-0.5 cm); settings: Nineteenth Table; application to foliage; application herbicide amount 320 g/ha
Outline: as §1

[5] = test system: Galium spurium; assay: Test Example 4: herbicidal effect by application to foliage (diluvial soil, plastic box); settings: foliage application, 320 g/ha
Outline: (§2)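 Scores run from 0 (herbicidal ratio ≤5%) to 5 (≥90%, almost fully withered) and were assessed three weeks after foliar spraying. Seedlings had been raised for 14 days at 25-30° C in sterilized diluvial soil before treatment, with the emulsion diluted in water to the stated g/ha dose.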

[6] = test system: Veronica persica; assay: as above; settings: foliage application, 320 g/ha
Outline: as §2

[7] = test system: Alopecurus myosuroides; assay: as above; settings: foliage application, 320 g/ha
Outline: as §2

[8] = test system: Echinochloa crus-galli var. crus-galli; assay: as above; settings: foliage application, 320 g/ha
Outline: as §2

[9] = test system: Chenopodium album; assay: as above; settings: foliage application, 320 g/ha
Outline: as §2

[10] = test system: Abutilon theophrasti; assay: as above; settings: foliage application, 320 g/ha
Outline: as §2

[11] = test system: Avena fatua; assay: as above; settings: foliage application, 320 g/ha
Outline: as §2

[12] = test system: Digitaria ciliaris; assay: as above; settings: foliage application, 320 g/ha
Outline: as §2

[13] = test system: Apera spica-venti.; assay: as above; settings: foliage application, 320 g/ha
Outline: as §2

[14] = test system: Setaria viridis; assay: as above; settings: foliage application, 320 g/ha
Outline: as §2

[15] = test system: Amaranthus retroflexus; assay: as above; settings: foliage application, 320 g/ha
Outline: as §2

[16] = test system: Stellaria media; assay: as above; settings: foliage application, 320 g/ha
Outline: as §2

[17] = test system: Lolium multiflorum Lam.; assay: as above; settings: foliage application, 320 g/ha
Outline: as §2

| SMILES | E (herbicidal effect grade) [1] | D (herbicidal effect grade) [2] | H (herbicidal effect grade) [3] | b (effect on crop grade) [4] | Q (Galium spurium) herbicidal effect grade [5] | R (Veronica persica) herbicidal effect grade [6] | J (Alopecurus myosuroides) herbicidal effect grade [7] | H (Echinochloa crus-galli var. crus-galli) herbicidal effect grade [8] | O (Chenopodium album) herbicidal effect grade [9] | M (Abutilon theophrasti) herbicidal effect grade [10] | I (Avena fatua) herbicidal effect grade [11] | F (Digitaria ciliaris) herbicidal effect grade [12] | L (Apera spica-venti.) herbicidal effect grade [13] | G (Setaria viridis) herbicidal effect grade [14] | N (Amaranthus retroflexus) herbicidal effect grade [15] | P (Stellaria media) herbicidal effect grade [16] | K (Lolium multiflorum Lam.) herbicidal effect grade [17] |
| --- | --- | --- | --- | --- | --- | --- | --- | --- | --- | --- | --- | --- | --- | --- | --- | --- | --- |
| COCCn1nnnc1NC(=O)c1ccc(C(F)(F)F)n2c(C(C)C)nnc12 [2-041] | 5 (Herbicidal ratio of 90% or more (almost completely withered)) | 5 (Herbicidal ratio of 90% or more (almost completely withered)) | 5 (Herbicidal ratio of 90% or more (almost completely withered)) | 3 (Herbicidal ratio of 40% or more and less than 70%) | 4 (Herbicidal ratio of 70% or more and less than 90%) | 4 (Herbicidal ratio of 70% or more and less than 90%) | 3 (Herbicidal ratio of 40% or more and less than 70%) | 5 (Herbicidal ratio of 90% or more (almost completely withered)) | 5 (Herbicidal ratio of 90% or more (almost completely withered)) | 5 (Herbicidal ratio of 90% or more (almost completely withered)) | 3 (Herbicidal ratio of 40% or more and less than 70%) | 4 (Herbicidal ratio of 70% or more and less than 90%) | 4 (Herbicidal ratio of 70% or more and less than 90%) | 3 (Herbicidal ratio of 40% or more and less than 70%) | 4 (Herbicidal ratio of 70% or more and less than 90%) | 5 (Herbicidal ratio of 90% or more (almost completely withered)) | 3 (Herbicidal ratio of 40% or more and less than 70%) |
| Cc1ccc(-c2nnc3c(C(=O)Nc4nnnn4C)ccc(C(F)(F)F)n23)cc1 [2-042] | 5 (Herbicidal ratio of 90% or more (almost completely withered)) | 5 (Herbicidal ratio of 90% or more (almost completely withered)) | 5 (Herbicidal ratio of 90% or more (almost completely withered)) | 5 (Herbicidal ratio of 90% or more (almost completely withered)) | 1 (Herbicidal ratio of 5% or more and less than 20%) | 5 (Herbicidal ratio of 90% or more (almost completely withered)) | 2 (Herbicidal ratio of 20% or more and less than 40%) | 5 (Herbicidal ratio of 90% or more (almost completely withered)) | 5 (Herbicidal ratio of 90% or more (almost completely withered)) | 5 (Herbicidal ratio of 90% or more (almost completely withered)) | 2 (Herbicidal ratio of 20% or more and less than 40%) | 5 (Herbicidal ratio of 90% or more (almost completely withered)) | 0 (Herbicidal ratio of 5% or less (almost no effect)) | 5 (Herbicidal ratio of 90% or more (almost completely withered)) | 5 (Herbicidal ratio of 90% or more (almost completely withered)) | 3 (Herbicidal ratio of 40% or more and less than 70%) | 1 (Herbicidal ratio of 5% or more and less than 20%) |
| Cn1nnnc1NC(=O)c1ccc(C(F)(F)F)n2c(-c3ccc(F)cc3)nnc12 [2-043] | 5 (Herbicidal ratio of 90% or more (almost completely withered)) | 5 (Herbicidal ratio of 90% or more (almost completely withered)) | 5 (Herbicidal ratio of 90% or more (almost completely withered)) | 5 (Herbicidal ratio of 90% or more (almost completely withered)) | 4 (Herbicidal ratio of 70% or more and less than 90%) | 5 (Herbicidal ratio of 90% or more (almost completely withered)) | 3 (Herbicidal ratio of 40% or more and less than 70%) | 5 (Herbicidal ratio of 90% or more (almost completely withered)) | 5 (Herbicidal ratio of 90% or more (almost completely withered)) | 5 (Herbicidal ratio of 90% or more (almost completely withered)) | 4 (Herbicidal ratio of 70% or more and less than 90%) | 5 (Herbicidal ratio of 90% or more (almost completely withered)) | 4 (Herbicidal ratio of 70% or more and less than 90%) | 4 (Herbicidal ratio of 70% or more and less than 90%) | 5 (Herbicidal ratio of 90% or more (almost completely withered)) | 5 (Herbicidal ratio of 90% or more (almost completely withered)) | 2 (Herbicidal ratio of 20% or more and less than 40%) |
| COc1cccc(-c2nnc3c(C(=O)Nc4nnnn4C)ccc(C(F)(F)F)n23)c1 [2-044] | 5 (Herbicidal ratio of 90% or more (almost completely withered)) | 5 (Herbicidal ratio of 90% or more (almost completely withered)) | 5 (Herbicidal ratio of 90% or more (almost completely withered)) | 5 (Herbicidal ratio of 90% or more (almost completely withered)) | 3 (Herbicidal ratio of 40% or more and less than 70%) | 5 (Herbicidal ratio of 90% or more (almost completely withered)) | 2 (Herbicidal ratio of 20% or more and less than 40%) | 5 (Herbicidal ratio of 90% or more (almost completely withered)) | 5 (Herbicidal ratio of 90% or more (almost completely withered)) | 5 (Herbicidal ratio of 90% or more (almost completely withered)) | 2 (Herbicidal ratio of 20% or more and less than 40%) | 5 (Herbicidal ratio of 90% or more (almost completely withered)) | 3 (Herbicidal ratio of 40% or more and less than 70%) | 4 (Herbicidal ratio of 70% or more and less than 90%) | 5 (Herbicidal ratio of 90% or more (almost completely withered)) | 4 (Herbicidal ratio of 70% or more and less than 90%) | 2 (Herbicidal ratio of 20% or more and less than 40%) |

Reference: patent publication US9708314B2, “Heterocyclic amide compound” (NISSAN CHEMICAL INDUSTRIES, LTD., priority 2013, dated 2017)
